Assays:
solubility in water = type: physicochemical; settings: room temperature and pressure (approximately 25° C. and 1 atmosphere)
[1] = solubility in pharmaceutically acceptable solvents and in a co-solvent system; type: physicochemical

solubility in water (solubility in water): practically insoluble
solubility in pharmaceutically acceptable solvents, such as propylene glycol and ethanol ([1]; individual solvents, room temperature (about 25° C.)): adequately soluble
solubility in a co-solvent system ([1]; more than one solvent in the solvent system, versus individual solvents): significantly improved
Compound: Cc1cccc(C)c1OCC(=O)N[C@@H](Cc1ccccc1)[C@@H](O)C[C@H](Cc1ccccc1)NC(=O)[C@H](C(C)C)N1CCCNC1=O (relative stereo) [lopinavir, [1S-[1R*,(R*),3R*,4R*]]-N-[4-[[(2,6-dimethylphenoxy)acetyl]amino]-3-hydroxy-5-phenyl-1-(phenylmethyl)pentyl]tetrahydro-alpha-(1-methylethyl)-2-oxo-(2H)-pyrimidine acetamide]

Reference: patent publication US8895051B2, “Flavoring systems for pharmaceutical compositions and methods of making such compositions” (AbbVie Inc., priority 2000, dated 2014)
